From US12459957B2, “Therapeutic compounds and methods” (GENENTECH, INC., priority 2021, dated 2025)

Tested on: neutrophils (PMA-stimulated NETosis)
Experiment: Quantification of NETosis using SYTOX Green
Assay type: cell-based, human
Conditions: for 5 uM (% NETosis): compound at 5 uM, vehicle 79.66, untreated 14.54; for IC50: Homo sapiens, Neutrophil, NETosis, SYTOX Green-stained neutrophils, PMA-stimulated
From the text: Semi-automated analysis of both phase and fluorescence images of SYTOX Green-stained neutrophils used a MATLAB algorithm. Total cells were counted by scoring phase standard deviation and radial symmetry. NETosis was classified in cells by measuring the DNA area in the fluorescence image and comparing with a select internal training set for each experiment. Unstimulated cells and PMA-stimulated, pyocyanin-inhibited cells served as negative controls. PMA-stimulated cells served as a positive control. NET-forming cells are presented as a percentage of total cells.

[1] = NET-forming cells as percentage of total cells

Compound | 5 uM (% NETosis) [1] | other results
CC(=O)Nc1ccc2c(c1)OCc1cc(-c3cccc(C(=O)N(C)C)c3)nn1C2 [Example 100] | 85.05% | –
CC(=O)Nc1ccc2c(c1)OCc1cc(-c3ccc(N4CCCC4)nc3)nn1C2 [Example 79] | 83.33% | –
CC(=O)Nc1ccc2c(c1)OCc1cc(-c3ccnc(NC(C)=O)c3)nn1C2 [Example 102] | 85.50% | –
COc1cccc(-c2cc3n(n2)Cc2ccc(NC(C)=O)cc2OC3)c1 [Example 2, N-(2-(3-Methoxyphenyl)-4H,10H-benzo[f]pyrazolo[5,1-c][1,4]oxazepin-7-yl)acetamide] | – | IC50: 900 ± 200 nM
CC(=O)Nc1ccc2c(c1)OCc1cc(-c3ccc4[nH]c(=O)oc4c3)nn1C2 [Example 87] | 78.92% | –
Cn1cc(Nc2ccc3c(c2)OCc2cc(-c4ccccc4)nn2C3)c(C#N)n1 [Example 34] | 80.80% | –
c1ccc(-c2cc3n(n2)Cc2ccc(-c4cn[nH]c4)cc2OC3)cc1 [Example 17] | 76.49% | –
CC(=O)Nc1ccc2c(c1)OCc1cc(-c3cccc4c3CN(C)C4)nn1C2 [Example 89] | 84.44% | –
Oc1cc(Nc2ccc3c(c2)OCc2cc(-c4ccccc4)nn2C3)[nH]n1 [Example 22] | 79.55% | –
CC(=O)Nc1ccc2c(c1)OCc1cc(-c3ccc(S(=O)(=O)N4CCOCC4)cc3)nn1C2 [Example 95] | 85.90% | –
CC(=O)Nc1ccc2c(c1)OCc1cc(-c3ccccc3NC(C)=O)nn1C2 [Example 105] | 70.78% | –
CC(=O)Nc1ccc2c(c1)OCc1cc(-c3cnn(CCN(C)C)c3)nn1C2 [Example 92] | 81.09% | –
CC(=O)Nc1ccc2c(c1)OCc1cc(-c3ccc(F)cc3CO)nn1C2 [Example 46, N-(2-(4-fluoro-2-(hydroxymethyl)phenyl)-4H,10H-benzo[f]pyrazolo[5,1-c][1,4]oxazepin-7-yl)acetamide] | 51.25% | –
CC(=O)Nc1ccc2c(c1)OCc1cc(-c3ccc(N(C)C(C)=O)cc3)nn1C2 [Example 82] | 77.67% | –
OCCn1cc(Nc2ccc3c(c2)OCc2cc(-c4ccccc4)nn2C3)cn1 [Example 20] | 77.97% | –
COc1ccc(-c2cc3n(n2)Cc2ccc(NC(C)=O)cc2OC3)c(C)c1 [Example 83] | 51.91% | –
CCc1n[nH]c(Nc2ccc3c(c2)OCc2cc(-c4ccccc4)nn2C3)c1Cl [Example 24] | 81.55% | –
CC(=O)Nc1ccc2c(c1)OCc1cc(-c3c(O)cccc3F)nn1C2 [Example 49] | 42.24% | –
CNC(=O)c1ccc(F)c(-c2cc3n(n2)Cc2ccc(NC(C)=O)cc2OC3)c1 [Example 99] | 84.59% | –
Cn1cc(C#N)c(Nc2ccc3c(c2)OCc2cc(-c4ccccc4)nn2C3)n1 [Example 18] | 79.81% | –
CC(=O)Nc1ccc2c(c1)OCc1cc(-c3cccc4[nH]c(=O)[nH]c34)nn1C2 [Example 86] | 84.35% | –
CC(=O)Nc1ccc2c(c1)OCc1cc(-c3c(C)n[nH]c3C)nn1C2 [Example 75] | 85.26% | –

Compound | 5 uM (% NETosis) [1] | other results
COc1ncc(-c2cc3n(n2)Cc2ccc(NC(C)=O)cc2OC3)cn1 [Example 77] | 86.51% | –
CC(=O)Nc1ccc2c(c1)OCc1cc(-c3cccc4c3CN(C)C4=O)nn1C2 [Example 90] | 78.83% | –
N#CCn1cc(-c2ccc3c(c2)OCc2cc(-c4ccccc4)nn2C3)cn1 [Example 12, 2-(4-(2-phenyl-4H,10H-benzo[f]pyrazolo[5,1-c][1,4]oxazepin-7-yl)-1H-pyrazol-1-yl)acetonitrile] | 81.41% | –
c1ccc(-c2cc3n(n2)Cc2ccc(-c4cncs4)cc2OC3)cc1 [Example 16] | 80.91% | –
CC(=O)Nc1ccc2c(c1)OCc1cc(-c3cccnc3C3CC3)nn1C2 [Example 65] | 83.56% | –
CC(=O)Nc1ccc2c(c1)OCc1cc(-c3ccc(C(=O)N4CCOCC4)cc3)nn1C2 [Example 106] | 86.21% | –
c1ccc(-c2cc3n(n2)Cc2ccc(-c4cnn5cccnc45)cc2OC3)cc1 [Example 14] | 83.04% | –
c1ccc(-c2cc3n(n2)Cc2ccc(NC4CC4)cc2OC3)cc1 [Example 26] | 78.70% | –
FC(F)(F)CNc1ccc2c(c1)OCc1cc(-c3ccccc3)nn1C2 [Example 37] | 83.25% | –
CC(C)(C)Nc1ccc2c(c1)OCc1cc(-c3ccccc3)nn1C2 [Example 38] | 81.48% | –
COc1cnccc1-c1cc2n(n1)Cc1ccc(NC(C)=O)cc1OC2 [Example 61] | 78.57% | –
CC(=O)Nc1ccc2c(c1)OCc1cc(-c3ccc(S(C)(=O)=O)nc3)nn1C2 [Example 64] | 75.82% | –
COc1cc(C(C)=O)ccc1O [Apocynin, reference compound] | – | % NETosis (Apocynin at 100 uM, NET-forming cells as percentage of total cells): 29.06%
c1ccc(-c2cc3n(n2)Cc2ccc(NC4CCC4)cc2OC3)cc1 [Example 23] | 86.22% | –
CC(=O)Nc1ccc2c(c1)OCc1cc(-c3cncn3C)nn1C2 [Example 53] | 57.77% | –
Clc1[nH]ncc1Nc1ccc2c(c1)OCc1cc(-c3ccccc3)nn1C2 [Example 28, N-(5-chloro-1H-pyrazol-4-yl)-2-phenyl-4H,10H-benzo[f]pyrazolo[5,1-c][1,4]oxazepin-7-amine] | 44.49% | –
COc1cc(-c2cc3n(n2)Cc2ccc(NC(C)=O)cc2OC3)c(OC)nn1 [Example 85] | 74.51% | –
CC(=O)Nc1ccc2c(c1)OCc1cc(-c3ccnc(C4CC4)c3)nn1C2 [Example 62] | 41.23% | –
CC(=O)Nc1ccc2c(c1)OCc1cc(-c3cnc4[nH]ccc4c3)nn1C2 [Example 63] | 80.04% | –
CC(=O)Nc1ccc2c(c1)OCc1cc(-c3ccccc3NS(C)(=O)=O)nn1C2 [Example 88] | 71.64% | –
c1ccc(-c2cc3n(n2)Cc2ccc(-c4cnc5n4CCCC5)cc2OC3)cc1 [Example 13] | 80.46% | –
CC(=O)Nc1ccc2c(c1)OCc1cc(-c3cnn(CC(F)(F)F)c3)nn1C2 [Example 93] | 73.17% | –

Compound | 5 uM (% NETosis) [1] | other results
CC(=O)Nc1ccc2c(c1)OCc1cc(-c3ccc(F)cc3C#N)nn1C2 [Example 45] | 56.95% | –
CC#CCC(=O)Nc1cccc(-c2cc3n(n2)Cc2ccc(NC(C)=O)cc2OC3)c1 [Example 4, N-(3-(7-acetamido-4H,10H-benzo[f]pyrazolo[5,1-c][1,4]oxazepin-2-yl)phenyl)pent-3-ynamide] | – | IC50: 800 ± 20 nM
FC1(F)CC1CNc1ccc2c(c1)OCc1cc(-c3ccccc3)nn1C2 (centres unmarked) [Example 40] | 71.44% | –
Cn1nccc1Nc1ccc2c(c1)OCc1cc(-c3ccccc3)nn1C2 [Example 32] | 76.40% | –
Cn1cc(Nc2ccc3c(c2)OCc2cc(-c4ccccc4)nn2C3)cn1 [Example 25] | 78.63% | –
CNS(=O)(=O)c1ccccc1-c1cc2n(n1)Cc1ccc(NC(C)=O)cc1OC2 [Example 97] | 81.93% | –
Cn1cc(-c2ccc3c(c2)OCc2cc(-c4ccccc4)nn2C3)cn1 [Example 11] | 80.81% | –
CSc1ccccc1-c1cc2n(n1)Cc1ccc(NC(C)=O)cc1OC2 [Example 43] | 49.48% | –
CC(=O)Nc1ccc2c(c1)OCc1cc(-c3c(F)cccc3F)nn1C2 [Example 48] | 42.40% | –
CC(=O)Nc1ccc2c(c1)OCc1cc(-c3cn[nH]c3C)nn1C2 [Example 66] | 84.91% | –
CNC(=O)c1cccc(-c2cc3n(n2)Cc2ccc(NC(C)=O)cc2OC3)c1 [Example 101] | 85.18% | –
N#C[C@H]1C[C@H](Nc2ccc3c(c2)OCc2cc(-c4ccccc4)nn2C3)C1 [Example 29] | 87.44% | –
OCC1(Nc2ccc3c(c2)OCc2cc(-c4ccccc4)nn2C3)CC1 [Example 42] | 82.57% | –
CC(=O)Nc1ccc2c(c1)OCc1cc(-c3ccnc(C#N)c3)nn1C2 [Example 69] | 66.18% | –
Cn1cc(Nc2ccc3c(c2)OCc2cc(-c4ccccc4)nn2C3)c(Cl)n1 [Example 31] | 85.26% | –
CC(=O)Nc1ccc2c(c1)OCc1cc(-c3ccnn3C3CC3)nn1C2 [Example 60] | 63.78% | –
CC(=O)Nc1ccc2c(c1)OCc1cc(-c3cnco3)nn1C2 [Example 52] | 66.03% | –
c1ccc(-c2cc3n(n2)Cc2ccc(-c4cnc5ncccn45)cc2OC3)cc1 [Example 15] | 77.26% | –
Cc1cn[nH]c1Nc1ccc2c(c1)OCc1cc(-c3ccccc3)nn1C2 [Example 35] | 73.98% | –
CC(=O)Nc1ccc2c(c1)OCc1cc(-c3cccc(C#CCCCO)c3)nn1C2 [Example 5, N-(2-(3-(5-hydroxypent-1-yn-1-yl)phenyl)-4H,10H-benzo[f]pyrazolo[5,1-c][1,4]oxazepin-7-yl)acetamide] | – | IC50: 3000 ± 1000 nM
CC(=O)Nc1ccc2c(c1)OCc1cc(-c3ccc(S(=O)(=O)N4CCN(C)CC4)cc3)nn1C2 [Example 96] | 82.37% | –
